Assays:
[1] = test system: BCR-ABL-T315I-induced CML; experiment: Mice with BCR-ABL-T315I-induced CML treated with HHT; format: in vivo
Description: In FIG. 3A, the number of circulating leukemic cells (calculated as percentage of Gr-1+GFP+ cells×white blood cell count) in mice with BCR-ABL-T315I-induced CML treated with placebo or HHT was determined on day 14 after transplantation.
Antibodies for Western Blot analysis against c-ABL, Mcl-1 and β-actin were purchased from Santa Cruz Biothechology (Santa Cruz, Calif.). Protein lysates were prepared by lysing cells in RIPA buffer and immunoprecipitation. The retroviral vector MSCV-IRES-eGFP carrying the BCR-ABL cDNA was used to make virus stock for bone marrow transduction/transplantation. Four- to 10-week-old wild-type BABL/c or C57BL/6 (The Jackson Laboratory) and homozygous SRC triple gene knockout (Lyn−/−Hck−/−Fgr−/−) mice were used for leukemogenesis experiments. HHT (ChemGenex Pharmaceuticals, Inc, CA) was dissolved in accompanying diluent to a stock concentration of 1 mg/ml. Further dilutions were made to working concentrations using media or water.
The number of circulating leukemic cells (calculated as percentage of Gr-1+GFP+ cells×white blood cell count) in mice with BCR-ABL-T315I-induced CML treated with placebo or HHT (0.5 mg/kg) was determined on day 14 after transplantation.

IM-resistant T315I+CML = experiment: Multicenter open-label phase 2/3 study of subcutaneous omacetaxine, efficacy; format: in vivo, human
Excerpt: As used herein, a cytological response to treatment with cephalotaxine and/or TKI is a response that occurs in the bone marrow rather than just in the peripheral blood. There are at least three cytological responses: (1) a cytogenetic response (CR); (2) a major cytogenetic response (MCR); and a complete cytogenetic response (CCR). Determination of such responses is based on the measurement of the number of peripheral blood and/or bone marrow cells having a marker that is associated with a particular leukemia. Such markers include cell surface antigens, aberrant proteins, and genetic modifications. A cytogenetic response occurs if the number or percentage of cells with such a marker decreases during treatment. A major cytogenetic response occurs if the number or percentage of such cells falls below 35%. A complete cytogenetic response occurs when no cells containing the marker are detected. For example, CML is characterized by the Ph+ chromosome. A cytogenetic response has occurred if the number of Ph+ chromosomes decreases at all during treatment. If the Ph+ percentage drops to 35% or less, it is considered a major cytogenetic response; 0% Ph+ is a complete cytogenetic response.
As used herein, a hematological response occurs when there is a change in the white blood cell count of a patient following treatment with cephalotaxine and/or TKI. The change in white blood cell count can be in the peripheral blood and the bone marrow although the change may be observed only in the peripheral blood. The response can be a partial reduction in white cell count or complete reduction to normal values (e.g. 10,000-12,000 cells […].)
This example summarizes human clinical trials using HHT to treat patients with IM-resistant T315I+CML.
(§1) A multicenter open-label phase 2/3 study evaluating safety and efficacy of omacetaxine administered subcutaneously (SC) in patients with IM-resistant T315I+CML in all phases of the disease is being conducted.
(§2) Induction phase—1.25 mg/m2 twice daily SC for 14 consecutive days every 28 days until complete hematologic response (CHR) or hematologic improvement has been achieved.
(§3) Maintenance therapy—1.25 mg/m2 twice daily SC for 7 days every 28 days for up to 24 months.
(§4) Doses were adjusted to maintain adequate WBC and platelet control by increasing or decreasing the number of days of administration of omacetaxine.

[2] = Phase 2/3 study of subcutaneous omacetaxine, safety and tolerability; format: in vivo, human
Description: as §1, §2, §3, §4
Includes all events considered related, probably related, possibly related, or with unknown relationship to omacetaxine treatment. Events listed in the table are included if occurrence was >5% of the total population (at least 1 of 23 patients).

[3] = Accelerated Phase, N = 5, median (range)
[4] = Chronic Phase, N = 20, median (range)

SMILES: COC(=O)C[C@](O)(CCCC(C)(C)O)C(=O)O[C@@H]1C(OC)=C[C@]23CCCN2CCc2cc4c(cc2[C@H]13)OCO4 [HHT, Homoharringtonine]
- survival ([1]; BCR-ABL-T315I CML mice, HHT vs placebo): prolonged survival
- number of circulating leukemic cells (percentage of Gr-1+GFP+ cells×white blood cell count) ([1]; HHT 0.5 mg/kg, day 14 after transplantation, vs placebo): significantly reduced
- Median Duration of Response, Cytogenetic Response Minimal (IM-resistant T315I+CML; Accelerated Phase, N = 5): 2.3 Months
- Median Duration of Response, Hematologic Response HI (IM-resistant T315I+CML; Accelerated Phase, N = 5): 2.8 Months
- Median Duration of Response, Hematologic Response CHR (IM-resistant T315I+CML; [3]): 9.6 (8.3-10.9+) Months
- Median Duration of Response, Hematologic Response RCP (IM-resistant T315I+CML; [3]): 2.0 (2.0-2.0+) Months
- Complete Hematologic Response (CHR) (IM-resistant T315I+CML; Accelerated Phase, N = 11): 2 (18) Number (%)
- Cytogenetic Response, Minimal (IM-resistant T315I+CML; Accelerated Phase, N = 11): 1 (9) Number (%)
- Cytogenetic Response, Overall (IM-resistant T315I+CML; Accelerated Phase, N = 11): 1 (9) Number (%)
- Hematologic Improvement (HI) (IM-resistant T315I+CML; Accelerated Phase, N = 11): 1 (9) Number (%)
- Hematologic Response, Overall (IM-resistant T315I+CML; Accelerated Phase, N = 11): 5 (45) Number (%)
- Return to Chronic Phase (RCP) (IM-resistant T315I+CML; Accelerated Phase, N = 11): 2 (18) Number (%)
- Median Duration of Response, Hematologic Response RCP (IM-resistant T315I+CML; Blast Phase, N = 1): 3.4 Months
- Hematologic Response, Overall (IM-resistant T315I+CML; Blast Phase, N = 8): 1 (13) Number (%)
- Return to Chronic Phase (RCP) (IM-resistant T315I+CML; Blast Phase, N = 8): 1 (13) Number (%)
- Median Duration of Response, Cytogenetic Response Partial (IM-resistant T315I+CML; Chronic Phase, N = 20): 4.2 Months
- Median Duration of Response, Cytogenetic Response Complete (IM-resistant T315I+CML; [4]): 4.8 (0.3-9.7+) Months
- Median Duration of Response, Cytogenetic Response Minimal (IM-resistant T315I+CML; [4]): 4.0 (3.9-20.8+) Months
- Median Duration of Response, Hematologic Response CHR (IM-resistant T315I+CML; [4]): 11.5 (3.5-25.4+) Months
- Complete Hematologic Response (CHR) (IM-resistant T315I+CML; Chronic Phase, N = 25): 20 (80) Number (%)
- Cytogenetic Response, Complete (IM-resistant T315I+CML; Chronic Phase, N = 25): 4 (16) Number (%)
- Cytogenetic Response, Minimal (IM-resistant T315I+CML; Chronic Phase, N = 25): 2 (8) Number (%)
- Cytogenetic Response, Overall (IM-resistant T315I+CML; Chronic Phase, N = 25): 7 (28) Number (%)
- Cytogenetic Response, Partial (IM-resistant T315I+CML; Chronic Phase, N = 25): 1 (4) Number (%)
- Hematologic Response, Overall (IM-resistant T315I+CML; Chronic Phase, N = 25): 20 (80) Number (%)
- Molecular Response, Major (IM-resistant T315I+CML; Chronic Phase, N = 25): 2 (8) Number (%)
- Cytogenetic Response, Major* (IM-resistant T315I+CML; Chronic Phase, N = 25, one complete and one partial cytogenetic response are unconfirmed): 5 (20) Number (%)
- progression free survival (IM-resistant T315I+CML; accelerated phase (AP), after one year): 25%
- progression free survival (IM-resistant T315I+CML; blast phase (BP), after 6 months): 44%
- progression free survival (IM-resistant T315I+CML; chronic phase (CP), after 1 year): 80%
- progression free survival (IM-resistant T315I+CML; chronic phase (CP), after 2 years): 70%
- duration of complete hematologic and cytogenetic responses (IM-resistant T315I+CML; in vivo): up to one year
- Treatment-Related Serious Adverse Events: Neutropenic Fever ([2]; Accelerated Phase): 1 (9) Number (percent)
- Treatment-Related Serious Adverse Events: Thrombocytopenia ([2]; Accelerated Phase): 0 Number (percent)
- Grade 3/4 Toxicities: Anemia ([2]; Accelerated Phase, N = 5): 2 (40) number (percent)
- Grade 3/4 Toxicities: Diarrhea ([2]; Accelerated Phase, N = 5): 1 (20) number (percent)
- Grade 3/4 Toxicities: Febrile neutropenia ([2]; Accelerated Phase, N = 5): 2 (40) number (percent)
- Grade 3/4 Toxicities: Neutropenia ([2]; Accelerated Phase, N = 5): 2 (40) number (percent)
- Grade 3/4 Toxicities: Pancytopenia ([2]; Accelerated Phase, N = 5): 2 (40) number (percent)
- Grade 3/4 Toxicities: Thrombocytopenia ([2]; Accelerated Phase, N = 5): 3 (60) number (percent)
- Treatment-Related Serious Adverse Events: Acute Coronary Syndrome* ([2]; Accelerated Phase, N = 6): 0 Number (percent)
- Deaths on study ([2]; BP patients with progressive disease, none considered related to the study drug): 3 deaths
- Grade 3/4 Toxicities: Anemia ([2]; Blast Phase, N = 6): 1 (17) number (percent)
- Grade 3/4 Toxicities: Diarrhea ([2]; Blast Phase, N = 6): 1 (17) number (percent)
- Grade 3/4 Toxicities: Febrile neutropenia ([2]; Blast Phase, N = 6): 2 (40) number (percent)
- Grade 3/4 Toxicities: Neutropenia ([2]; Blast Phase, N = 6): 2 (33) number (percent)
- Grade 3/4 Toxicities: Pancytopenia ([2]; Blast Phase, N = 6): 0 number (percent)
- Grade 3/4 Toxicities: Thrombocytopenia ([2]; Blast Phase, N = 6): 1 (17) number (percent)
- Treatment-Related Serious Adverse Events: Acute Coronary Syndrome* ([2]; Blast Phase, N = 6): 0 Number (percent)
- Treatment-Related Serious Adverse Events: Neutropenic Fever ([2]; Blast Phase, N = 6): 1 (9) Number (percent)
- Treatment-Related Serious Adverse Events: Thrombocytopenia ([2]; Blast Phase, N = 6): 0 Number (percent)
- Grade 3/4 Toxicities: Anemia ([2]; Chronic Phase, N = 12): 7 (58) number (percent)
- Grade 3/4 Toxicities: Diarrhea ([2]; Chronic Phase, N = 12): 2 (17) number (percent)
- Grade 3/4 Toxicities: Febrile neutropenia ([2]; Chronic Phase, N = 12): 1 (9) number (percent)
- Grade 3/4 Toxicities: Neutropenia ([2]; Chronic Phase, N = 12): 6 (50) number (percent)
- Grade 3/4 Toxicities: Pancytopenia ([2]; Chronic Phase, N = 12): 1 (9) number (percent)
- Grade 3/4 Toxicities: Thrombocytopenia ([2]; Chronic Phase, N = 12): 8 (67) number (percent)
- Treatment-Related Serious Adverse Events: Neutropenic Fever ([2]; Chronic Phase, N = 12): 1 (9) Number (percent)
- Treatment-Related Serious Adverse Events: Thrombocytopenia ([2]; Chronic Phase, N = 12): 1 (9) Number (percent)
- Treatment-Related Serious Adverse Events: Acute Coronary Syndrome* ([2]; Chronic Phase, N = 12, considered secondary to omacetaxine induced anemia): 1 (9) Number (percent)
- Grade 3/4 Toxicities: Anemia ([2]; Total, N = 23): 10 (43) number (percent)
- Grade 3/4 Toxicities: Diarrhea ([2]; Total, N = 23): 4 (17) number (percent)
- Grade 3/4 Toxicities: Febrile neutropenia ([2]; Total, N = 23): 5 (22) number (percent)
- Grade 3/4 Toxicities: Neutropenia ([2]; Total, N = 23): 10 (43) number (percent)
- Grade 3/4 Toxicities: Pancytopenia ([2]; Total, N = 23): 3 (13) number (percent)
- Grade 3/4 Toxicities: Thrombocytopenia ([2]; Total, N = 23): 12 (52) number (percent)
- Treatment-Related Serious Adverse Events: Acute Coronary Syndrome* ([2]; Total, N = 23): 1 (4) Number (percent)
- Treatment-Related Serious Adverse Events: Neutropenic Fever ([2]; Total, N = 23): 3 (13) Number (percent)
- Treatment-Related Serious Adverse Events: Thrombocytopenia ([2]; Total, N = 23): 1 (4) Number (percent)
- Grade 1/2 injection site erythema, patients ([2]; number (%) of patients): 6 (23%)
- Grade 1/2 injection site pain, patients ([2]; number (%) of patients): 3 (13%)
- Dose delays ([2]; of induction cycles): 75%
- Dose delays ([2]; of maintenance cycles): 80%
- myelosuppression (most common side effect) ([2]; subcutaneously administered): usually transient and reversible, and rarely results in serious clinical complications
- tolerability ([2]; subcutaneously administered): generally well tolerated

Reference: patent US20090176759A1, “LEUKEMIC STEM CELL ABLATION” (ChemGenex Pharmaceuticals, Inc., priority 2007, published 2009)
